From patent US20140323418A1, “SELECTIVE KINASE INHIBITORS” (PORTOLA PHARMACEUTICALS, INC., priority 2011, published 2014)

These compounds were tested against T1, full length active recombinant SYK enzyme (Homo sapiens, UniProt P43405) (assay: Inhibition of Syk tyrosine phosphorylation activity (LANCE TR-FRET kinase assay)). Details: 1 nM SYK, 550 nM substrate, 100 μM ATP, 1 hour room temperature.
T1 construct: full length active recombinant SYK enzyme (Millipore, Calif.); purchased Millipore
Assay type: biochemical

Row | SMILES | IC50 [nM]
1 | CC(=O)Oc1cnn(-c2cccc(Nc3nc(N[C@@H]4CCCC[C@@H]4N)ncc3C(N)=O)c2)n1 [Example 253, 2-(3-((2-(((1R,2S)-2-aminocyclohexyl)amino)-5-carbamoylpyrimidin-4-yl)amino)phenyl)-2H-1,2,3-triazol-4-yl acetate] | > 1000
2 | CC(=O)N[C@H]1CCCC[C@H]1Nc1ncc(C(N)=O)c(Nc2cccc(-n3nccn3)c2)n1 [Example 196] | 100 to 1000
3 | Cc1ccc(Nc2ncc(C(N)=O)c(N[C@H]3CC[C@H](N)CC3)n2)cc1 [Example 244, 4-(trans-4-aminocyclohexylamino)-2-(p-tolylamino)pyrimidine-5-carboxamide] | 100 to 1000
4 | Cc1cccc(Nc2nc(NCC(N)C(C)(F)F)ncc2C(N)=O)c1 (stereo not drawn) [Example 105, 4-(m-toluidino)-2-(2-amino-3,3-difluorobutylamino)pyrimidine-5-carboxamide] | 100 to 1000
5 | NC(=O)c1cnc(N[C@H]2CN[C@@H](CF)C2)nc1Nc1cccc(-n2nccn2)c1 [Example 229, 4-((3-(2H-1,2,3-triazol-2-yl)phenyl)amino)-2-(((3R,5R)-5-(fluoromethyl)pyrrolidin-3-yl)amino)pyrimidine-5-carboxamide] | 100 to 1000
6 | NC(=O)c1cnc(NC2CCNC2=O)nc1Nc1cnc2ccccc2c1 (stereo not drawn) [Example 216, 2-((2-oxopyrrolidin-3-yl)amino)-4-(quinolin-3-ylamino)pyrimidine-5-carboxamide] | > 1000
7 | CC1=C[C@@H](Nc2ncc(C(N)=O)c(Nc3cccc(-n4nccn4)c3)n2)CN1 [Example 227] | 100 to 1000
8 | NC(=O)c1cnc(N[C@@H]2CCCC(F)(F)[C@@H]2N)nc1Nc1cccc(-n2nccn2)c1 [Example 13] | 100 to 1000
9 | NC(=O)c1cnc(N[C@@H]2CCN(C=O)C2)nc1Nc1cccc(-n2nccn2)c1 [Example 228] | > 1000
10 | C[C@@H](Nc1ncc(C(N)=O)c(Nc2cccc3c2ccn3C)n1)C1CC1 [Example 110, (R)-2-(1-cyclopropylethylamino)-4-(1-methyl-1H-indol-4-ylamino)pyrimidine-5-carboxamide] | 100 to 1000
11 | COc1cccc(Nc2nc(N[C@@H](C(N)=O)C3CC3)ncc2C(N)=O)c1 [Example 64, (R)-2-((2-amino-1-cyclopropyl-2-oxoethyl)amino)-4-((3-methoxyphenyl)amino)pyrimidine-5-carboxamide] | 100 to 1000
12 | CC[C@@H](Nc1ncc(C(N)=O)c(Nc2cccc(OC)c2)n1)C(N)=O [Example 60, (R)-2-((1-amino-1-oxobutan-2-yl)amino)-4-((3-methoxyphenyl)amino)pyrimidine-5-carboxamide] | 100 to 1000
13 | CCO[C@@H]1CCCC[C@H]1Nc1ncc(C(N)=O)c(Nc2cccc(-n3nccn3)c2)n1 [Example 6] | 100 to 1000
14 | COc1ccc(Nc2ncc(C(N)=O)c(N[C@H]3CC[C@H](N)CC3)n2)cc1 [Example 245, 4-(trans-4-aminocyclohexylamino)-2-(4-methoxyphenylamino)pyrimidine-5-carboxamide] | 100 to 1000
15 | NC(=O)c1cnc(N[C@@H]2CCCC[C@@H]2N)nc1Nc1cncc(-n2cccn2)c1 [Example 48, 4-((5-(1H-pyrazol-1-yl)pyridin-3-yl)amino)-2-(((1R,2S)-2-aminocyclohexyl)amino)pyrimidine-5-carboxamide] | 10 to 100
16 | Cc1cccc(Nc2nc(NC[C@@H](N)CC(F)F)ncc2C(N)=O)c1 [Example 78, (S)-4-(m-toluidino)-2-(2-amino-4,4-difluorobutylamino)pyrimidine-5-carboxamide] | 10 to 100
17 | Cn1ccc2c(Nc3nc(N[C@@H]4CCCC[C@@H]4O)ncc3C(N)=O)cccc21 [Example 107, 2-((1R,2S)-2-hydroxycyclohexylamino)-4-(1-methyl-1H-indol-4-ylamino)pyrimidine-5-carboxamide] | 100 to 1000
18 | Cc1nsc(Nc2nc(N[C@@H]3CCCC[C@@H]3N)ncc2C(N)=O)c1I [Example 231, 2-(((1R,2S)-2-aminocyclohexyl)amino)-4-((4-iodo-3-methylisothiazol-5-yl)amino)pyrimidine-5-carboxamide] | 10 to 100
19 | CCn1ccc2c(Nc3nc(NCC(C)C)ncc3C(N)=O)cccc21 [Example 116, 4-(1-ethyl-1H-indol-4-ylamino)-2-(isobutylamino)pyrimidine-5-carboxamide] | 100 to 1000
20 | Cn1ccc2c(Nc3nc(NCC4CCCC4)ncc3C(N)=O)cccc21 [Example 111, 2-(cyclopentylmethylamino)-4-(1-methyl-1H-indol-4-ylamino)pyrimidine-5-carboxamide] | 100 to 1000
21 | CC[C@H](Nc1ncc(C(N)=O)c(Nc2cccc(C)c2)n1)C1(N)CC1 [Example 128, (S)-2-(1-(1-aminocyclopropyl)propylamino)-4-(m-tolylamino)pyrimidine-5-carboxamide] | 100 to 1000
22 | N#Cc1ccc(Nc2nc(N[C@@H]3CCOC[C@@H]3N)ncc2C(N)=O)cc1 [Example 54, 2-(((3R,4R)-3-aminotetrahydro-2H-pyran-4-yl)amino)-4-((4-cyanophenyl)amino)pyrimidine-5-carboxamide] | 100 to 1000

Continued, values first:

Row | IC50 [nM] | SMILES
23 | 10 to 100 | COc1cccc(Nc2nc(N[C@H](CC(C)C)C(N)=O)ncc2C(N)=O)c1 [Example 62, (R)-2-((1-amino-4-methyl-1-oxopentan-2-yl)amino)-4-((3-methoxyphenyl)amino)pyrimidine-5-carboxamide]
24 | 10 to 100 | NC(=O)c1cnc(N[C@H](C2CC2)C2(N)CC2)nc1Nc1ccc2c(c1)CCCN2 [Example 153, (R)-2-(1-(1-aminocyclopropyl)(cyclopropyl)methylamino)-4-(1,2,3,4-tetrahydroquinolin-6-ylamino)pyrimidine-5-carboxamide]
25 | 1 to 10 | Cn1ccc2c(Nc3nc(NC[C@@H](N)CC(F)F)ncc3C(N)=O)ccnc21 [Example 94, (S)-2-(2-amino-4,4-difluorobutylamino)-4-(1-methyl-1H-pyrrolo[2,3-b]pyridin-4-ylamino)pyrimidine-5-carboxamide]
26 | 1 to 10 | NC(=O)c1cnc(NC[C@@H](N)CC(F)F)nc1Nc1cccc2c1ccn2CC(F)(F)F [Example 84, (S)-2-(2-amino-4,4-difluorobutylamino)-4-(1-(2,2,2-trifluoroethyl)-1H-indol-4-ylamino)pyrimidine-5-carboxamide]
27 | 1 to 10 | CC(C)[C@@H](Nc1ncc(C(N)=O)c(Nc2cnc3ccccc3c2)n1)C1(N)CC1 [Example 158, (R)-2-(1-(1-aminocyclopropyl)-2-methylpropylamino)-4-(quinolin-3-ylamino)pyrimidine-5-carboxamide]
28 | 10 to 100 | Cc1cccc(Nc2nc(N[C@H]3[C@@H](N)CCCC3(F)F)ncc2C(N)=O)c1 [Example 39, 2-(((1S,6S)-6-amino-2,2-difluorocyclohexyl)amino)-4-(m-tolylamino)pyrimidine-5-carboxamide]
29 | 10 to 100 | CC[C@@H](Nc1ncc(C(N)=O)c(Nc2ccc(-c3cnns3)cc2)n1)C(N)=O [Example 59, (R)-4-((4-(1,2,3-thiadiazol-5-yl)phenyl)amino)-2-((1-amino-1-oxobutan-2-yl)amino)pyrimidine-5-carboxamide]
30 | 1 to 10 | CC(C)[C@@H](Nc1ncc(C(N)=O)c(Nc2cccc(-c3ncccn3)c2)n1)C1(N)CC1 [Example 136, (R)-2-(1-(1-aminocyclopropyl)-2-methylpropylamino)-4-(3-(pyrimidin-2-yl)phenylamino)pyrimidine-5-carboxamide]
31 | 10 to 100 | CC[C@@H](Nc1ncc(C(N)=O)c(Nc2ccc3cccnc3c2)n1)C(N)=O [Example 57, (R)-2-((1-amino-1-oxobutan-2-yl)amino)-4-(quinolin-7-ylamino)pyrimidine-5-carboxamide]
32 | 10 to 100 | CC(C)[C@@H](Nc1ncc(C(N)=O)c(Nc2cc(F)cc(F)c2)n1)C1(N)CC1 [Example 160, (R)-2-(1-(1-aminocyclopropyl)-2-methylpropylamino)-4-(3,5-difluorophenylamino)pyrimidine-5-carboxamide]
33 | 1 to 10 | NC(=O)c1cnc(N[C@@H]2CCOC[C@@H]2N)nc1Nc1ccc2ncccc2c1 [Example 180, 2-((3R,4R)-3-aminotetrahydro-2H-pyran-4-ylamino)-4-(quinolin-6-ylamino)pyrimidine-5-carboxamide]
34 | 10 to 100 | NC(=O)c1cnc(N[C@@H]2CCCC[C@@H]2N)nc1Nc1ccc(Br)c(-n2nccn2)c1 [Example 20, 2-((1R,2S)-2-aminocyclohexylamino)-4-(4-bromo-3-(2H-1,2,3-triazol-2-yl)phenylamino)pyrimidine-5-carboxamide]
35 | 10 to 100 | NC(=O)c1cnc(N[C@H]2[C@@H](N)CCCC2(F)F)nc1Nc1cnn2ccccc12 [Example 37, 2-(((1S,6S)-6-amino-2,2-difluorocyclohexyl)amino)-4-(pyrazolo[1,5-a]pyridin-3-ylamino)pyrimidine-5-carboxamide]
36 | 1 to 10 | CC[C@@H](Nc1ncc(C(N)=O)c(Nc2cccc(-n3cccn3)c2)n1)C1(N)CC1 [Example 132, (R)-4-(3-(1H-pyrazol-1-yl)phenylamino)-2-(1-(1-aminocyclopropyl)propylamino)pyrimidine-5-carboxamide]
37 | 10 to 100 | NC(=O)c1cnc(N[C@@H]2CCOC[C@@H]2N)nc1Nc1ccc2scnc2c1 [Example 178, 2-((3R,4R)-3-aminotetrahydro-2H-pyran-4-ylamino)-4-(benzo[d]thiazol-5-ylamino)pyrimidine-5-carboxamide]
38 | 10 to 100 | NC(=O)c1cnc(N[C@@H]2[C@H](F)CCC[C@@H]2N)nc1Nc1cccc(-n2nccn2)c1 (racemic) [Example 175, (±)-4-(3-(2H-1,2,3-triazol-1-yl)phenylamino)-2-((1S,2S,6R)-2-amino-6-fluorocyclohexylamino)pyrimidine-5-carboxamide]
39 | 1 to 10 | C[C@@H](Nc1ncc(C(N)=O)c(Nc2cccc(-c3ncccn3)c2)n1)C1(N)CC1 [Example 141, (R)-2-(1-(1-aminocyclopropyl)ethylamino)-4-(3-(pyrimidin-2-yl)phenylamino)pyrimidine-5-carboxamide]
